Drawing on patent US20050059710A1, “Diphenylamino ketone derivatives as MEK inhibitors” (Pfizer Inc, priority 2003, published 2005), this text covers melting point and IC50 for six molecules.

For series [1], the system named is MEK. In words: Cellular assay for MEK inhibition: ERK phosphorylation in C26 cells (C26CPA1). As to conditions: inhibition of ERK phosphorylation, murine colon 26 (C26) carcinoma cells, one hour at 37° C. Format: cell-based. As for the experimental part: (§1) Cellular Assay for Measuring MEK Inhibition
(§2) MEK inhibitors were evaluated by determining their ability to inhibit phosphorylation of MAP kinase (ERK) in murine colon 26 (C26) carcinoma cells. Since ERK1 and ERK2 represent the only known substrates for MEK1and MEK2, the measurement of inhibition of ERK phosphorylation in cells provides direct read out of cellular MEK inhibition by the compounds of the invention. Detection of phosphorylation of ERK was carried out either by Western blot or ELISA format. Briefly, the assays involve treatment of exponentially growing C26 cells with varying concentrations of the test compound (or vehicle control) for one hour at 37° C. For Western blot assay, cells were rinsed free of compound/vehicle and lysed in a solution containing 70 mM NaCl, 50 mM glycerol phosphate, 10 mM HEPES, pH 7.4, 1% Triton X-100, 1 mM Na3VO4, 100 μM PMSF, 10 μM leupeptin and 10 μM pepstatin. Supernatants were then subjected to gel electrophoresis and hybridized to a primary antibody recognizing dually phosphorylated ERK1 and ERK2. To evaluate total MAPK levels, blots were subsequently ‘stripped’ and re-probed with a 1:1 mixture of polyclonal antibodies recognizing unphosphorylated ERK1 and ERK2. For pERK ELISA assay, pERK TiterZyme Enzyme immunometric Assay kits were acquired from Assay Designs, Inc (Ann Arbor, Mich.). […]

The test system of series [2] is MEK. In words: Cellular assay for MEK inhibition: ERK phosphorylation in C26 cells, pERK ELISA format (C26ELSA). Format: cell-based. As to conditions: inhibition of ERK phosphorylation, murine colon 26 (C26) carcinoma cells, one hour at 37° C. As for the experimental part: as §1, §2

`O=C(CO)c1ccc(F)c(F)c1Nc1ccc(I)cc1F` [Example 1, 1-[3,4-Difluoro-2-(2-fluoro-4-iodo-phenylamino)-phenyl]-2-hydroxy-ethanone]: the melting point is 128 to 128.5 °C. Inhibition in series [1] was half-maximal at 6.5 nM (IC50). The molecule further had a half-maximal inhibitory concentration (IC50) in series [2] of 20 nM.
For `C#Cc1ccc(Nc2c(C(=O)c3ccccn3)ccc(F)c2F)c(F)c1` [Example 2, [2-(4-Ethynyl-2-fluoro-phenylamino)-3,4-difluoro-phenyl]-pyridin-2-yl-methanone], the melting point was 109 to 111 °C.
As to `C#Cc1ccc(Nc2c(C(=O)c3nccs3)ccc(F)c2F)c(F)c1` [Example 3, [2-(4-Ethynyl-2-fluoro-phenylamino)-3,4-difluoro-phenyl]-thiazol-2-yl-methanone], the melting point came to 161 °C.
In turn, `C#Cc1ccc(Nc2c(C(=O)c3nccn3C)ccc(F)c2F)c(F)c1` [Example 4, [2-(4-Ethynyl-2-fluoro-phenylamino)-3,4-difluoro-phenyl]-(1-methyl-1H-imidazol-2-yl)-methanone] gave a melting point of 166 °C.
In turn, `Cc1coc(C(=O)c2ccc(F)c(F)c2Nc2ccc(I)cc2F)n1` [Example 5, [3,4-Difluoro-2-(2-fluoro-4-iodo-phenylamino)-phenyl]-(4-methyl-oxazol-2-yl)-methanone] had a melting point of 127 °C. In addition, in series [1], inhibition was half-maximal at 287 nM (IC50).
As for `C#Cc1ccc(Nc2c(C(C)=O)ccc(F)c2F)c(F)c1` [Example 10, 1-[2-(4-Ethynyl-2-fluoro-phenylamino)-3,4-difluoro-phenyl]-ethanone], the melting point was in the range of 78 to 80 °C.
